{"source": "BindingDB's records for doi:10.1021/np000120k", "about": "(The University of Tokyo, 2000)", "biological_target": "T1, Carboxypeptidase A1 (Homo sapiens, UniProt P15085)", "T1 sequence (P15085 whole entry)": "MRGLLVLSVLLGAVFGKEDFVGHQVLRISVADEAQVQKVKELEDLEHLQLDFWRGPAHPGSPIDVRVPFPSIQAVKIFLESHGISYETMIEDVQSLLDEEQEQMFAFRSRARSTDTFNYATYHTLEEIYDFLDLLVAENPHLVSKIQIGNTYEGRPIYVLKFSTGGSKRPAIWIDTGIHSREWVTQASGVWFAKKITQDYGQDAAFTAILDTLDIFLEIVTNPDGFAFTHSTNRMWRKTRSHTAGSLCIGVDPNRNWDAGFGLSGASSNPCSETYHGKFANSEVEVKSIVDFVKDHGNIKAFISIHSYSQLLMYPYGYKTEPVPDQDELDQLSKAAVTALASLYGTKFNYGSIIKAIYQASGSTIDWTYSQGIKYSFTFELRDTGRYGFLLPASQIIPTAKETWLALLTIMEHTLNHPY", "assay": "Inhibition of carboxypeptidase A", "note": "Starred links: 1 amine or outer side, 2 acyl side, 3 side chain; linkers in the order of their positions; H or OH if unused. Positions of bridges follow the written chain, without caps; N, C: chain ends. Non-standard residues stand in square brackets, D forms with d. Residues, ends and D or L forms follow the SMILES beside them. NMehTyr = CN[C@@H](CCc1ccc(O)cc1)C(=O)O; hTyr = N[C@@H](CCc1ccc(O)cc1)C(=O)O; CO = O=C([*:1])[*:2]", "data": [{"smiles": "CC[C@H](C)[C@@H]1NC(=O)[C@H](NC(=O)N[C@@H](Cc2ccc(O)cc2)C(=O)O)CCCCNC(=O)[C@H]([C@@H](C)CC)NC(=O)[C@H](CCc2ccc(O)cc2)N(C)C(=O)[C@H](CCc2ccc(O)cc2)NC1=O", "note": "[Anabaenopeptin G] ({Tyr-CO}-[dK]I[hTyr][NMehTyr]I; lactam 1-C)", "values": [{"measurement": "IC50", "value": 7, "unit": "ng/mL"}]}]}
